Series [1] concerns cells in culture. The following applies: cited from earlier work.
In series [2] the test system is Yarrowia lipolytica. The experiment in a line: Protection of yeast cells from death caused by hydrogen peroxide. In kind it is cell-based. The following applies: FIG. 14; α-tocopherol 25 μM.
Series [3] relates to OXYS rats. The series can be described thus: Cataract and macular dystrophy in senescence-accelerated OXYS rats. The following applies: for 2nd stage of cataract / 2nd stage of macular degeneration / changes in the macular area of the retina: OXYS rats age 3 months after oral course; for eyes with lens changes: OXYS rats age 3 months after oral course from 1.5 to 3 months. Type of series: in vivo, rat. As for the experimental part: The animals were housed in cages (45*35*35 cm) and kept under standard laboratory conditions (at 22±1° C., 60% relative humidity, and natural light), provided with a standard rodent diet (PK-120-1, Ltd. ‘Laboratorsnab’, Russia), and given water ad libitum. At the age of 1.5 months after preliminary pupil dilation with 1% tropicamide ophthalmic the rats were conducted through ophthalmoscopic examination using direct ophthalmoscop “Betta”, Germany. […] We use Vitamin E for a comparison with test antioxidants. Animals received the compounds on a small piece of dried bread before a regular meal, and the control group of animals received the same piece of bread without any compound. After completing the course of antioxidants the animals were retested with ophthalmoscope. To avoid human factor in the evaluation of compound effects the researcher who conducted the ophthalmoscopic examination was not told which of the animals received antioxidants. The lens state was evaluated according to the classification system accepted in clinical practice with grades ranging from 0 to 3: score 0—the lens is clear; score 1—spotted weak cloudiness; score 2—multiple spots of cloudiness and score 3—intense cloudiness of the lens core and nucleus.

Series [4] concerns Hela cells.
Series [5] deals with cell culture. The following applies: cited from earlier work.
Series [6] can be described thus: Accumulation of MitoQ in tissues when fed to animals (prior art). In kind it is in vivo. The following applies: feeding to animals. The procedure:
It should also be noted that despite some promising observations concerning the MitoQ action, there are several results and calculations that cast doubt on the possibility of practical application of this compound. For example, it was shown in experiments with cell culture that MitoQ provides its antioxidant and anti-apoptotic action at concentration about 1 μM in the medium. It means that MitoQ concentrations inside the mitochondria should be 1 mM provided that membrane potential is about 180 mV. On the other hand, it was shown by Smith R A, Porteous C M, Gane A M, Murphy M P, Proc Natl Acad Sci USA, 2003, 100(9):5407-12 when feeding MitoQ to animals, the accumulation of MitoQ in the most oxidative stress sensitive tissues (heart and brain) amounts up to 100 pmoles/gram, which corresponds to the MitoQ concentration inside heart mitochondria equal to 100 nM. This is more than 1000 times lower than the concentration shown to be efficient in the cell culture experiments. Formally, the concentration can be raised by the increase of amounts of MitoQ fed to animals, but this is, in fact, not possible due to the toxicity of the compound.

The conditions of series [7]: feeding to animals; cited from earlier work.
The subject of series [8] is Hela cells. The experiment in a line: Transmission of apoptotic signal between inducer and recipient slides. The following applies: 2500 E/ml added to medium for joint incubation. Type of series: cell-based, human. The procedure: HeLa cells were used in these experiments. Cells grown on a glass slide were treated with different apoptosis-inducing agents (tumor necrosis factor (TNF), staurosporine, H2O2) for 3 h. Then the glass slide with cells (inducer) was washed to remove these reagents and placed into Petri plate to come into contact with glass slide (recipient) with cells grown in the absence of any apoptosis-inducing agent. After 16-18 h of subsequent growth and staining the cells with Hoechst 33342 as described above, apoptosis at both glass slides was analyzed.
Thus the main mediator of apoptosis signal was H2O2.

This is an account of results in patent US9328130B2, “Method of treating organism by biologically active compounds specifically delivered into mitochondria, pharmaceutical composition required for the use of the method and a compound applicable for this purpose” (MITOTECH S.A., priority 2005, dated 2016).

Take `Cc1c(C)c2c(c(C)c1O)CCC(C)(CC[P+](c1ccccc1)(c1ccccc1)c1ccccc1)O2` (stereo not drawn) [MitoVitE]: the “concentration with no toxic effect on cells in culture” value in series [1] was 10 µM. In series [1] (effect retained in the presence of uncoupler FCCP), the “prevention of apoptosis in cultured cells” value is listed as “able to prevent apoptosis in cultured cells”.

As for `Cc1c(C)c2c(c(C)c1O)CC[C@@](C)(CCC[C@H](C)CCC[C@H](C)CCCC(C)C)O2` [tocopherol, α-tocopherol, reference compound], the “effect on survival compared among protectants” value in series [2] is listed as “very similar”.

On to `CC(=O)Oc1c(C)c(C)c2c(c1C)CCC(C)(CCC[C@H](C)CCC[C@H](C)CCCC(C)C)O2` (stereo partly drawn) [vitamin E, alfa-tocopherol acetate], for which, in series [3], the “2nd stage of cataract” value came out at 12%, the “2nd stage of macular degeneration” value is on record as 8%, the “changes in the macular area of the retina” value was 54% and the “eyes with lens changes” value came to 58%.

Turning to `[Br-].[K+]` [KBr], in series [3], the “2nd stage of cataract” value amounted to 57%, the “2nd stage of macular degeneration” value was found to be 13%, the “changes in the macular area of the retina” value was 87% and the “eyes with lens changes” value came to 93%.

Regarding `COC1=C(OC)C(=O)C(CCCCCCCCCC[P+](c2ccccc2)(c2ccccc2)c2ccccc2)=C(C)C1=O` [MitoQ], in series [4] (100 μM hydrogen peroxide), the “LD50 in the presence of hydrogen peroxide” value was 4 µM. In addition, the “LD50 (concentrations at which 50% cells die)” value in series [4] (2 h of incubation, no hydrogen peroxide) came out at 7 µM. Further, the “concentration in the medium giving antioxidant and anti-apoptotic action” value in series [5] is “about 1 μM”. Also, the “corresponding concentration inside heart mitochondria” value in series [6] was 100 nM. Also, in series [7], the “accumulation in heart and brain” value is “up to 100 pmoles/gram”.

Consider `C[C@@H]1C[C@@H]([C@H](O)CC2CC(=O)NC(=O)C2)C(=O)[C@@H](C)C1` [cycloheximide D, reference compound], for which, in series [2], the “effect on survival compared among protectants” value is given as “very similar”.

B1: catalase: catalase (2500 E/ml) added into the medium for joint incubation (protein, UniProt P00432 2-527, looked up)
Catalase: ADNRDPASDQMKHWKEQRAAQKPDVLTTGGGNPVGDKLNSLTVGPRGPLLVQDVVFTDEMAHFDRERIPERVVHAKGAGAFGYFEVTHDITRYSKAKVFEHIGKRTPIAVRFSTVAGESGSADTVRDPRGFAVKFYTEDGNWDLVGNNTPIFFIRDALLFPSFIHSQKRNPQTHLKDPDMVWDFWSLRPESLHQVSFLFSDRGIPDGHRHMNGYGSHTFKLVNANGEAVYCKFHYKTDQGIKNLSVEDAARLAHEDPDYGLRDLFNAIATGNYPSWTLYIQVMTFSEAEIFPFNPFDLTKVWPHGDYPLIPVGKLVLNRNPVNYFAEVEQLAFDPSNMPPGIEPSPDKMLQGRLFAYPDTHRHRLGPNYLQIPVNCPYRARVANYQRDGPMCMMDNQGGAPNYYPNSFSAPEHQPSALEHRTHFSGDVQRFNSANDDNVTQVRTFYLKVLNEEQRKRLCENIAGHLKDAQLFIQKKAVKNFSDVHPEYGSRIQALLDKYNEEKPKNAVHTYVQHGSHLSAREKANL
With B1, in series [8], the “apoptosis of recipient cells” value is listed as “prevented apoptosis of recipient cells”.
